Results as given in ChEMBL document CHEMBL1201862, “PubChem BioAssay data set” (2004).
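Interpolation was linear, between the two tested concentrations surrounding the appropriate level; five concentrations were tested over 48 hours in 96-well plates. Abbreviation: GI50, concentration required for 50% inhibition of growth.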 Active and inactive are the calls of the source. Rule as the data show it: active = GI50 up to about 1.1 µM and inactive = higher.

What was measured:
Assay in all cases: NCI tumour cell line growth inhibition, 48 h
RXF 393 = tested on: RXF 393
HOP-18 = tested on: HOP-18
RPMI-8226 = tested on: RPMI-8226
K562 = tested on: K562
SF-295 = tested on: SF-295
SNB-19 = tested on: SNB-19
COLO 205 = tested on: COLO 205
EKVX = tested on: EKVX
SW-620 = tested on: SW-620
UACC-62 = tested on: UACC-62
ACHN = tested on: ACHN
HCT-116 = tested on: HCT-116
DLD-1 = tested on: DLD-1
DMS-273 = tested on: DMS-273
NCI-H522 = tested on: NCI-H522
KM-20L2 = tested on: KM-20L2
NCI-H460 = tested on: NCI-H460
M19-MEL = tested on: M19-MEL
LXFL 529 = tested on: LXFL 529
CCRF-CEM = tested on: CCRF-CEM
M14 = tested on: M14
LOX IMVI = tested on: LOX IMVI
IGROV-1 = tested on: IGROV-1
SK-MEL-5 = tested on: SK-MEL-5
HCT-15 = tested on: HCT-15
SF-539 = tested on: SF-539
HT-29 = tested on: HT-29
U-251 = tested on: U-251
SK-OV-3 = tested on: SK-OV-3
RXF 631 = tested on: RXF 631
NCI-H23 = tested on: NCI-H23
TK-10 = tested on: TK-10
A549 = tested on: A549
HOP-92 = tested on: HOP-92
MOLT-4 = tested on: MOLT-4
SN12C = tested on: SN12C
SK-MEL-28 = tested on: SK-MEL-28
OVCAR-8 = tested on: OVCAR-8
UO-31 = tested on: UO-31
786-0 = tested on: 786-0
DMS-114 = tested on: DMS-114
CAKI-1 = tested on: CAKI-1
SF-268 = tested on: SF-268
SR = tested on: SR
HL-60 = tested on: HL-60
OVCAR-3 = tested on: OVCAR-3
NCI-H226 = tested on: NCI-H226
HCC 2998 = tested on: HCC 2998
OVCAR-5 = tested on: OVCAR-5
UACC-257 = tested on: UACC-257
Malme-3M = tested on: Malme-3M
SK-MEL-2 = tested on: SK-MEL-2
SNB-78 = tested on: SNB-78
XF498 = tested on: XF498
HOP-62 = tested on: HOP-62
SNB-75 = tested on: SNB-75
OVCAR-4 = tested on: OVCAR-4
KM12 = tested on: KM12
A498 = tested on: A498

COc1ccc(/C=C/C(=O)c2c(-c3ccccc3)nn(C)c(=O)c2N2CCCCC2)cc1
GI50 (RXF 393): 12 µM (inactive) | GI50 (HOP-18): 20.1 µM (inactive) | GI50 (RPMI-8226): 5.26 µM (inactive) | GI50 (K562): 11.8 µM (inactive) | GI50 (SF-295): 21.6 µM (inactive) | GI50 (SNB-19): 18.4 µM (inactive) | GI50 (COLO 205): 16.7 µM (inactive) | GI50 (EKVX): 11.7 µM (inactive) | GI50 (SW-620): 24.5 µM (inactive) | GI50 (UACC-62): 15.7 µM (inactive) | GI50 (ACHN): 40.1 µM (inactive) | GI50 (HCT-116): 7.31 µM (inactive) | GI50 (DLD-1): 16.1 µM (inactive) | GI50 (DMS-273): 15.9 µM (inactive) | GI50 (NCI-H522): 10.7 µM (inactive) | GI50 (KM-20L2): 14.3 µM (inactive) | GI50 (NCI-H460): 17.8 µM (inactive) | GI50 (M19-MEL): 25.3 µM (inactive) | GI50 (LXFL 529): 16.6 µM (inactive) | GI50 (CCRF-CEM): 9.95 µM (inactive) | GI50 (M14): 20.7 µM (inactive) | GI50 (LOX IMVI): 14.7 µM (inactive) | GI50 (IGROV-1): 25 µM (inactive) | GI50 (SK-MEL-5): 12.8 µM (inactive) | GI50 (HCT-15): 20.7 µM | GI50 (SF-539): 17.5 µM (inactive) | GI50 (HT-29): 14.9 µM (inactive) | GI50 (U-251): 14.5 µM (inactive) | GI50 (SK-OV-3): 21.4 µM (inactive) | GI50 (RXF 631): 23.5 µM (inactive) | GI50 (NCI-H23): 14 µM (inactive) | GI50 (TK-10): 37.1 µM (inactive) | GI50 (A549): 16.8 µM (inactive) | GI50 (HOP-92): 3.81 µM (inactive) | GI50 (MOLT-4): 3.94 µM (inactive) | GI50 (SN12C): 20.8 µM (inactive) | GI50 (SK-MEL-28): 14.9 µM (inactive) | GI50 (OVCAR-8): 19.5 µM (inactive) | GI50 (UO-31): 13.9 µM (inactive) | GI50 (786-0): 14.2 µM (inactive) | GI50 (DMS-114): 14.6 µM (inactive) | GI50 (CAKI-1): 31.2 µM (inactive) | GI50 (SF-268): 19.7 µM (inactive)

Cc1cc2c(C)nn(Cc3ccccc3)c2c(C(=O)O)c1C
GI50 (RXF 393): > 100 µM (inactive) | GI50 (HOP-18): > 100 µM (inactive) | GI50 (SR): > 100 µM (inactive) | GI50 (RPMI-8226): > 100 µM (inactive) | GI50 (SF-295): > 100 µM (inactive) | GI50 (SNB-19): > 100 µM (inactive) | GI50 (COLO 205): > 100 µM (inactive) | GI50 (EKVX): > 100 µM (inactive) | GI50 (SW-620): > 100 µM (inactive) | GI50 (UACC-62): > 100 µM (inactive) | GI50 (ACHN): > 100 µM (inactive) | GI50 (HCT-116): > 100 µM (inactive) | GI50 (DMS-273): > 100 µM (inactive) | GI50 (HL-60): > 100 µM (inactive) | GI50 (KM-20L2): > 100 µM (inactive) | GI50 (OVCAR-3): > 100 µM (inactive) | GI50 (M19-MEL): > 100 µM (inactive) | GI50 (LXFL 529): > 100 µM (inactive) | GI50 (NCI-H226): > 100 µM (inactive) | GI50 (CCRF-CEM): > 100 µM (inactive) | GI50 (LOX IMVI): > 100 µM (inactive) | GI50 (IGROV-1): > 100 µM (inactive) | GI50 (HCC 2998): > 100 µM (inactive) | GI50 (OVCAR-5): > 100 µM (inactive) | GI50 (HCT-15): > 100 µM | GI50 (UACC-257): > 100 µM (inactive) | GI50 (SF-539): > 100 µM (inactive) | GI50 (U-251): > 100 µM (inactive) | GI50 (SK-OV-3): > 100 µM (inactive) | GI50 (Malme-3M): > 100 µM (inactive) | GI50 (RXF 631): > 100 µM (inactive) | GI50 (NCI-H23): > 100 µM (inactive) | GI50 (TK-10): > 100 µM (inactive) | GI50 (A549): > 100 µM (inactive) | GI50 (HOP-92): > 100 µM (inactive) | GI50 (MOLT-4): > 100 µM (inactive) | GI50 (SN12C): > 100 µM (inactive) | GI50 (SK-MEL-28): > 100 µM (inactive) | GI50 (OVCAR-8): > 100 µM (inactive) | GI50 (SK-MEL-2): > 100 µM (inactive) | GI50 (SNB-78): > 100 µM (inactive) | GI50 (UO-31): > 100 µM (inactive) | GI50 (786-0): > 100 µM (inactive) | GI50 (SF-268): > 100 µM (inactive) | GI50 (XF498): > 100 µM (inactive) | GI50 (HOP-62): > 100 µM (inactive)

CC(C)(C)C1(O)Cc2ccccc2C(=O)O1 (stereo unspecified)
GI50 (SNB-75): > 100 µM (inactive) | GI50 (RXF 393): > 100 µM (inactive) | GI50 (HOP-18): > 100 µM (inactive) | GI50 (SR): > 100 µM (inactive) | GI50 (K562): > 100 µM (inactive) | GI50 (SF-295): > 100 µM (inactive) | GI50 (SNB-19): > 100 µM (inactive) | GI50 (COLO 205): > 100 µM (inactive) | GI50 (EKVX): > 100 µM (inactive) | GI50 (SW-620): > 100 µM (inactive) | GI50 (UACC-62): > 100 µM (inactive) | GI50 (ACHN): > 100 µM (inactive) | GI50 (HCT-116): > 100 µM (inactive) | GI50 (DLD-1): > 100 µM (inactive) | GI50 (DMS-273): > 100 µM (inactive) | GI50 (OVCAR-4): > 100 µM (inactive) | GI50 (NCI-H522): > 100 µM (inactive) | GI50 (HL-60): > 100 µM (inactive) | GI50 (KM-20L2): > 100 µM (inactive) | GI50 (NCI-H460): > 100 µM (inactive) | GI50 (OVCAR-3): > 100 µM (inactive) | GI50 (M19-MEL): > 100 µM (inactive) | GI50 (KM12): > 100 µM (inactive) | GI50 (LXFL 529): > 100 µM (inactive) | GI50 (NCI-H226): > 100 µM (inactive) | GI50 (A498): > 100 µM (inactive) | GI50 (CCRF-CEM): > 100 µM (inactive) | GI50 (M14): > 100 µM (inactive) | GI50 (LOX IMVI): > 100 µM (inactive) | GI50 (IGROV-1): > 100 µM (inactive) | GI50 (HCC 2998): > 100 µM (inactive) | GI50 (SK-MEL-5): > 100 µM (inactive) | GI50 (OVCAR-5): > 100 µM (inactive) | GI50 (HCT-15): > 100 µM | GI50 (UACC-257): > 100 µM (inactive) | GI50 (SF-539): > 100 µM (inactive) | GI50 (HT-29): > 100 µM (inactive) | GI50 (U-251): > 100 µM (inactive) | GI50 (SK-OV-3): > 100 µM (inactive) | GI50 (Malme-3M): > 100 µM (inactive) | GI50 (RXF 631): > 100 µM (inactive) | GI50 (NCI-H23): > 100 µM (inactive) | GI50 (TK-10): > 100 µM (inactive) | GI50 (A549): > 100 µM (inactive) | GI50 (HOP-92): > 100 µM (inactive) | GI50 (MOLT-4): > 100 µM (inactive) | GI50 (SN12C): > 100 µM (inactive) | GI50 (SK-MEL-28): > 100 µM (inactive) | GI50 (OVCAR-8): > 100 µM (inactive) | GI50 (SK-MEL-2): > 100 µM (inactive) | GI50 (SNB-78): > 100 µM (inactive) | GI50 (UO-31): > 100 µM (inactive) | GI50 (786-0): > 100 µM (inactive) | GI50 (DMS-114): > 100 µM (inactive) | GI50 (CAKI-1): > 100 µM (inactive) | GI50 (SF-268): > 100 µM (inactive) | GI50 (HOP-62): > 100 µM (inactive)
